Experimental data from US20260191845A1, “PYRIDINE-2-THIOL 1-OXIDE DERIVATIVES AND THEIR USE FOR TREATMENT OF MAMMALIAN INFECTIONS CAUSED BY MYCOBACTERIUM OR FUNGI” (priority 2022, published 2026).

Columns and labels:
[1] = test system: IC1 M. tuberculosis MDR clinical isolate; assay: REMA MIC90, broad spectrum of microorganisms; type: cell-based; details: Mycobacterium tuberculosis, read-out: MIC to Compound 2
[2] = test system: IC2 M. tuberculosis MDR clinical isolate; assay: REMA MIC90, broad spectrum of microorganisms; type: cell-based; details: Mycobacterium tuberculosis, read-out: MIC to Compound 2

## CCOC(=O)c1ccc([S-])[n+]([O-])c1.[Na+] [Compound 2, Sodium 5-(ethoxycarbonyl)pyridine-2-thiolate 1-oxide]
[1]
  MIC: 25 µg/mL
[2]
  MIC: 25 µg/mL
